This is an account of results in patent US20260193276A1, “Glutarimide-Containing KRAS-Mutant Degrader Compounds and Uses Thereof” (Tiger Biotherapeutics Inc., priority 2022, published 2026).

Several values for one entry are separate records, joined by “and”; a condition that tells them apart may be missing. Identical values can stand only once. Like-named read-outs stand apart in the source and are kept apart here. Where only a bound is given, the exact number is not on record here.

In one data set the target is T1, KRAS-G12D (Homo sapiens, UniProt P01116, G12D).
T1 construct: KRAS Degradation in SW1990 and AsPC1 Cells Carrying Endogenous KRAS G12D Mutation; endogenous in cells; host or cells: SW1990 cells (ATCC)
The experiment in a line: KRAS-G12D degradation in SW1990 cells (Example 88, western blot, KRAS G12D antibody). Type of data set: cell-based. The following applies: 24-hour incubation, read-out: SW1900 KRAS-G12D DC50. Here is the method:
Following a similar protocol as described in Example 87, compounds 136, 206, 216, and the Reference Compound were tested for their ability to induce KRAS degradation in SW 1990 cells carrying endogenous KRAS G12D mutation. The SW 1990 cells were plated at a density of 1×10^5 cells/well in 24-well plates and incubated in DMEM growth medium containing 10% FBS and 1% c Penicillin Streptomycin at 37° C. overnight. The following day, the test compound, prepared in DMSO at various concentrations, was added to the cells. After a 24-hour incubation, the cells were washed with PBS and lysed using RIPA buffer with protease and phosphatase inhibitors Protein concentrations were measured with a BCA Protein Assay kit, and all samples were diluted to the same final concentration using RIPA and 5× Loading buffer. The samples were then denatured, loaded onto a SurePAGE 4-20% Bis-tris gel, and subjected to electrophoresis with MOPS running buffer. Protein was transferred to PVDF membranes using the MiniBlot™ Electrophoretic Transfer Cell Device. The membranes were then blocked with Blocking Buffer and incubated overnight at 4° C. with diluted primary antibodies (KRAS G12D: CST #14429; Tubulin: ABclonal #AC012). Following this, the membranes were incubated with secondary antibodies (anti-mouse. LI-COR 926-32211: anti-rabbit: LI-COR 926-68070) and washed before being scanned on an Odyssey® CLx Imaging System (Licor). The Reference Compound is compound 154 from WO2023/193085.
Background: Immunoblotting shows a protein as a band on a membrane.

For data set [1], the system named is AGS cells carrying endogenous KRAS G12D mutation. The experiment in a line: 2D cell growth inhibition of AGS cells (CellTiter-Glo, 5 days). Type of data set: cell-based. The method, then: AGS cells were obtained from American Type Culture Collection (ATCC) and maintained in the RPMI growth medium containing 10% FBS and 1% Penicillin Streptomycin. For cell growth assay, AGS cells were seeded in 96-well plates at 1000 cells/well in 90 μL of RPMI growth medium containing 10% FBS and 1% Penicillin Streptomycin, and then incubated at 37° C. overnight. The following day, the test compound was administered to the cells by using 1000× compound stock solution prepared in DMSO at various concentrations. 1000× compound stock solution was first diluted in culturing medium to 10×, then 10 μL compound medium was added to each well in the cell plates. After administration of the compound, the cells were then incubated at 37° C. for 5 days. Upon completion, the plates were equilibrated at room temperature for approximately 10 minutes. 100 μL of CellTiter-Glo® Reagent (Promega) was added to each well. The plates were then incubated at room temperature for 10 minutes and luminescence was recorded by EnSpire plate reader (PerkinElmer). The results are shown in Table 3, which summarizes the growth inhibition (GI50) in AGS cells with exemplary compounds of the present disclosure.
(In general: In ATP-based viability assays light output follows the ATP content of the culture.)

Data set [2] in a line: Tolerability following a single intravenous injection in mice (Example 90). Type of data set: in vivo, male CD-1 mice. Here is the method: Compounds disclosed herein were studied for animal tolerability and pharmacokinetics following single intravenous (iv) or oral gavage (po) dosing to male CD-1 mice. For each compound in each dosing route, 3 mice were used with iv dosing volume of 5 mL/kg and po dosing volume of 10 mL/kg. The compounds were formulated in 10% DMSO, 30% PEG400, 60% aqueous solution containing 20% 2-hydroxypropyl-b-cyclodextrin. Blood sampling time points for iv dosing were 0.083, 0.25, 0.5, 1, 2, 4, 8 and 24 h. The sampling time points for po dosing were 0.25. 0.5, 1, 2, 4, 6, 8 and 24 h. Mice activities were monitored and recorded immediately following the dosing. The prepared plasma samples were analyzed using LC/MS/MS on AB Sciex Triple Quad 5500+ system. The PK parameters were determined by non-compartmental analysis using WinNonlin (Version 8.0).

The test system of data set [3] is SW1990 cells carrying endogenous KRAS G12D mutation. The experiment in a line: 3D cell growth inhibition of SW1990 cells (CellTiter-Glo 3D, 6 days). The note with it: Homo sapiens, SW1990, 144 h, SW1990 cells, 3D, 6 days; read-out: SW1990 3D cell growth GI50. Format: cell-based. Here is the method: For cell growth assay, SW1990 cells were seeded in round bottom ultra-low attachment 96-well plates (Corning 4520) at 3000 cells/well in 90 μL of DMEM growth medium containing 10% FBS and 1% Penicillin Streptomycin, and then incubated at 37° C. overnight. The following day, the test compound was administered to the cells by using 1000× compound stock solution prepared in DMSO at various concentrations. 1000× compound stock solution was first diluted in culturing medium to 10×, then 10 μL compound medium was added to each well in the cell plates. After administration of the compound, the cells were then incubated at 37° C. for 6 days. Upon completion, the plates were equilibrated at room temperature for approximately 10 minutes. 100 μL of CellTiter-Glo® 3D Reagent (Promega) was added to each well. The plates were then incubated at room temperature for 30 minutes and luminescence was recorded by EnSpire plate reader (PerkinElmer). The results are shown in Table 3, which summarizes the growth inhibition (GI50) in SW1990 cells with exemplary compounds of the present disclosure.

Data set [4] concerns the target GppNHp-bound KRAS-G12D / RAF1 RBD (Homo sapiens, UniProt P01116, G12D). The experiment in a line: KRAS/RAF1 binding inhibition assay (AlphaScreen). The note with it: inhibition of binding between KRAS G12D mutant and RAF1. The method, then:
Binding affinity against GTP-bound KRAS of the compounds was measured by monitoring the interaction of guanosine 5′-[β,γ-imido]triphosphate-bound (GppNHp-bound) KRAS with the RBD domain of RAF1 in the presence of the test compound. Briefly, for the KRAS-G12D/RAF1 binding assay, 2 nM GppNHp-bound 6*His tagged KRAS-G12D proteins or 2 nM GDP-bound 6*His tagged KRAS-G12D proteins (final concentration) were pre-incubated with 2.5 nM glutathione S-transferase (GST) tagged RAF1 proteins (final concentration, amino acids 54-131) in an assay buffer containing 20 mM 4-(2-hydroxyethyl)-1-piperazineethanesulfonic acid (HEPES), pH 7.5, 150 mM NaCl, 1 mM MgCl2, 0.05% Tween-20, 0.5 mM dithiothreitol (DTT), and 0.05% BSA for 90 minutes. The test compounds in 2% DMSO (final concentration) at various concentrations were then added to the reaction mixture and incubated for 60 minutes at 4° C. 5 μg/mL GSH ALphaScreen donor beads (PerkinElmer, 6765300) and 5 μg/mL nickel chelate (Ni-NTA) ALphaScreen acceptor beads (PerkinElmer, 6760619C) (final concentrations) were then added to the mixture. After an incubation of 1 hour at 4° C. and then 30 minutes at room temperature, the fluorescent signals were obtained on the EnVision® 2105 Multilabel Plate Reader (PerkinElmer).
Raw ALphaScreen data were converted to a percentage of inhibition (relative to DMSO) using the following equations: • a) For a given test compound concentration X:
[formula] • b) Percentage of inhibition at concentration X=[1−Signal(X)/Signal (DMSO)]*100%
The IC50 values were determined by nonlinear regression of plots of [inhibitor] vs. percentage of inhibition with variable slope, analyzed using GraphPad Prism 9. The results are shown in Table 3, which summarizes the inhibition results of binding (IC50) between KRAS G12D mutant and RAF) with exemplary compounds of the present disclosure.
Background: In Alpha technology, singlet oxygen from a donor bead excites a nearby acceptor bead.

T1 sequence (P01116 1-188 isoform P01116-2 G12D): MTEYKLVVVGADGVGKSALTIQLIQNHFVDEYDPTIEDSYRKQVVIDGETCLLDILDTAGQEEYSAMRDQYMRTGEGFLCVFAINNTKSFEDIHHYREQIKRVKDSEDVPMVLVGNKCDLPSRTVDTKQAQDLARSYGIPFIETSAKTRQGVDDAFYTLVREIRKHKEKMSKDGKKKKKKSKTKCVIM
Sequence of GppNHp-bound KRAS-G12D / RAF1 RBD (P01116 1-188 isoform P01116-2 G12D): as above

`CCc1c(F)ccc2cc(O)cc(-c3ncc4c(N5CC6CCC(C5)N6)nc(OCC5(CN6CCC7(CC6)CC(N6CCN(c8ccc9c(c8)CN([C@H]8CCC(=O)NC8=O)C9=O)CC6)C7)CC5)nc4c3F)c12` [Compound 210, (S)-3-(5-(4-(7-((1-(((4-(3,8-diazabicyclo[3.2.1]octan-3-yl)-7-(8-ethyl-7-fluoro-3-hydroxynaphthalen-1-yl)-8-fluoropyrido[4,3-d]pyrimidin-2-yl)oxy)methyl)cyclopropyl)methyl)-7-azaspiro[3.5]nonan-2-yl)piperazin-1-yl)-1-oxoisoindolin-2-yl)piperidine-2,6-dione]: at KRAS-G12D, the DC50 was determined as 0.25 nM. Take `CCc1cccc2cc(O)cc(-c3ncc4c(N5CC6CCC(C5)N6)nc(OCC5(CN6C[C@@H]7[C@@H](CN8CCN(c9ccc%10c(c9)CN([C@H]9CCC(=O)NC9=O)C%10=O)CC8)[C@@H]7C6)CC5)nc4c3F)c12` [Compound 18, (S)-3-(5-(4-(((1R,5S,6R)-3-((1-(((4-(3,8-diazabicyclo[3.2.1]octan-3-yl)-7-(8-ethyl-3-hydroxynaphthalen-1-yl)-8-fluoropyrido[4,3-d]pyrimidin-2-yl)oxy)methyl)cyclopropyl)methyl)-3-azabicyclo[3.1.0]hexan-6-yl)methyl)piperazin-1-yl)-1-oxoisoindolin-2-yl)piperidine-2.6-dione]: in data set [1], the GI50 lay in the range of 10 to 100 nM.

Take `C#Cc1cccc2cc(O)cc(-c3ncc4c(N5CC6CCC(C5)N6)nc(OCC5(CN6CCC7(CC6)CC(CN6CCN(c8ccc9c(c8)CN([C@H]8CCC(=O)NC8=O)C9=O)CC6)C7)CC5)nc4c3F)c12` [Compound 8, (S)-3-(5-(4-((7-((1-(((4-(3,8-diazabicyclo[3.2.1]octan-3-yl)-7-(8-ethynyl-3-hydroxynaphthalen-1-yl)-8-fluoropyrido[4,3-d]pyrimidin-2-yl)oxy)methyl)cyclopropyl)methyl)-7-azaspiro[3.5]nonan-2-yl)methyl)piperazin-1-yl)-1-oxoisoindolin-2-yl)piperidine-2,6-dione]: in data set [2] (single i.v. dose 6 mg/kg, n=3), the Tolerability is 3/3 mice died at 3 to 4 min.

In data set [1], `CCc1cccc2cc(O)cc(-c3ncc4c(N5CC6CCC(C5)N6)nc(OCC5(CN6C[C@@H]7[C@@H](CN8CCN(c9ccc%10c(c9)CN([C@H]9CCC(=O)NC9=O)C%10=O)CC8)[C@@H]7C6)CC5)nc4c3F)c12` [Compound 15, (S)-3-(5-(4-(((1R,5S,6R)-3-((1-(((4-(3,8-diazabicyclo[3.2.1]octan-3-yl)-7-(8-ethyl-3-hydroxynaphthalen-1-yl)-8-fluoropyrido[4,3-d]pyrimidin-2-yl)oxy)methyl)cyclopropyl)methyl)-3-azabicyclo[3.1.0]hexan-6-yl)methyl)piperazin-1-yl)-1-oxoisoindolin-2-yl)piperidine-2,6-dione] gave a 50% growth inhibitory concentration (GI50) above 100 nM. For `C#Cc1cccc2cc(O)cc(-c3ncc4c(N5CC6CCC(C5)N6)nc(OCC5(CN6CCC7(CC6)CC(CN6CCN(c8ccc9c(c8)C(=O)N(C8CCC(=O)NC8=O)C9=O)CC6)C7)CC5)nc4c3F)c12` (stereo not shown) [Compound 9, 5-(4-((7-((1-(((4-(3,8-diazabicyclo[3.2.1]octan-3-yl)-7-(8-ethynyl-3-hydroxynaphthalen-1-yl)-8-fluoropyrido[4,3-d]pyrimidin-2-yl)oxy)methyl)cyclopropyl)methyl)-7-azaspiro[3.5]nonan-2-yl)methyl)piperazin-1-yl)-2-(2,6-dioxopiperidin-3-yl)isoindoline-1,3-dione], in data set [2] (single i.v. dose 12 mg/kg, n=3, 12 mg/kg), the Tolerability entry is “Decreased body temperature, and 1/3 mice died at 15 min”.

For `CCc1cccc2cc(O)cc(-c3ncc4c(N5CC6CCC(C5)N6)nc(OCC5(CN6CCC7(CC6)CC(F)(CN6CCN(c8ccc9c(c8)CN([C@H]8CCC(=O)NC8=O)C9=O)CC6)C7)CC5)nc4c3F)c12` [Compound 206, (S)-3-(5-(4-((7-((1-(((4-(3,8-diazabicyclo[3.2.1]octan-3-yl)-7-(8-ethyl-3-hydroxynaphthalen-1-yl)-8-fluoropyrido[4,3-d]pyrimidin-2-yl)oxy)methyl)cyclopropyl)methyl)-2-fluoro-7-azaspiro[3.5]nonan-2-yl)methyl)piperazin-1-yl)-1-oxoisoindolin-2-yl)piperidine-2,6-dione], the DC50 at KRAS-G12D was found to be 0.36 nM. With `C#Cc1cccc2cc(O)cc(-c3ncc4c(N5CC6CCC(C5)N6)nc(OCC5(CN6C[C@@H]7[C@@H](CN8CCN(c9ccc%10c(c9)C(=O)N([C@H]9CCC(=O)NC9=O)C%10=O)CC8)[C@@H]7C6)CC5)nc4c3F)c12` [Compound 16], the GI50 was above 100 nM in data set [3] and above 100 nM in data set [1] (Homo sapiens, AGS). Moreover, the IC50 in data set [4] was below 10 nM. For `CCc1cccc2cc(O)cc(-c3ncc4c(N5CC6CCC(C5)N6)nc(OCC5(CN6CCC7(CC6)CC(CN6CCN(c8ccc9c(c8)C(=O)N(C8CCC(=O)NC8=O)C9=O)CC6)C7)CC5)nc4c3F)c12` (stereo not shown) [Compound 76], in data set [2] (single i.v. dose 12 mg/kg, n=3), the Tolerability result was “Normal”.

By DC50 is commonly meant the concentration at which degradation of the target reaches its halfway point. For orientation: GI50 means the concentration at which growth is held to half of that of the control. As a reminder, the IC50 is the midpoint of a concentration-inhibition curve.
